Test system: human BCL11A erythroid enhancer
Experiment: Tiled pooled CRISPR-Cas9 screen for in situ functional mapping of the human BCL11A erythroid enhancer (HbF-high/HbF-low sort, sgRNA deep sequencing)
Format: cell-based
Conditions: for Enrichment Score: HbF enrichment, human library NGG and NGG RC sgRNAs filtered for enrichment score >0.259; for Dropout Score: human library sgRNAs that produced HbF enrichment over 0.259
Excerpt: Every 20-mer sequence upstream of an NGG or NAG PAM sequence on the sense or anti-sense strand was identified for both the human and mouse orthologous +55, +58, and +62 DNase hypersensitive site (DHS) as well as BCL11A/BCL11a exon 2. Relative to the human hg 19 reference genome, a reference was used with the following substitutions to approximate a common low-HbF associated haplotype: rs1427407-G, rs1896293-T, rs6706648-T, rs6738440-G, rs7606173-C. Each of the sgRNA oligos were synthesized as previously described (37,41,64) and cloned using a Gibson Assembly master mix (New England Biolabs) into lentiGuide-Puro (Addgene plasmid ID 52963) BsmBI digested, PCR purified, and dephosphorylated. Gibson Assembly products were transformed to electrocompetent E. cloni cells (Lucigen). Sufficient colonies were isolated to ensure 90X library coverage for both human and mouse libraries. Plasmid libraries were deep sequenced (described below) to confirm representation.
Tiled Pooled CRISPR-Cas9 Screen for In Situ Functional Mapping the Human BCL11A Erythroid Enhancer.
HUDEP clone 2 (HUDEP-2) was utilized as previously described by from Nakamura and colleagues (49). HUDEP-2 cells were expanded in StemSpan SFEM (Stem Cell Technologies) supplemented with 10^−6 M dexamethasone (Sigma), 100 ng/mL human stem cell factor (SCF) (R&D), 3 IU/mL erythropoietin (Amgen), 1% L-glutamine (Life Technologies), and 2% penicillin/streptomycin (Life Technologies). 1 μg/mL doxycycline (Sigma) was included in the culture to induce expression of the human papilloma virus type 16 E6/E7 genes (49). HUDEP-2 cells were differentiated in Iscove's Modified Dulbecco's Medium (IMDM) supplemented with 330 μg/mL halo-transferrin (Sigma), 10 μg/mL recombinant human insulin (Sigma), 2 IU/mL heparin (Sigma), 5% human solvent detergent pooled plasma AB (Rhode Island Blood Center), 3 IU/mL erythropoietin (Amgen), 100 ng/mL human stem cell factor (SCF) (R&D), 1 μg/mL doxycycline (Sigma), 1% L-glutamine (Life Technologies), and 2% penicillin/streptomycin (Life Technologies).
HUDEP-2 cells with stable Cas9 expression were transduced at low multiplicity with the human sgRNA library lentivirus pool while in expansion medium. […] Cell numbers were maintained throughout the experiment at levels adequate to exceed 1000× representation of the library. 10 μg/mL blasticidin (Sigma) and 1 μg/mL puromycin (Sigma) were added 24 hours after transduction to select for lentiviral library integrants in cells with Cas9. Cells were cultured in expansion media for one week followed by differentiation media for an additional week.
Intracellular staining was performed by fixing cells with 0.05% glutaraldehyde (grade II) (Sigma) for 10 minutes at room temperature. Cells were centrifuged for 5 minutes at 350 g and then resuspended in 0.1% Triton-X100 (Life Technologies) for 5 minutes at room temperature for permeabilization. Triton X-100 was diluted with phosphate buffered saline (PBS) and then centrifuged at 350 g for 15 minutes. Cells were stained with anti-human antibodies for HbF (clone HbF-1 with FITC or APC conjugation; Life Technologies) and B-hemoglobin antibody (clone 37-8 with PerCP-Cy5 or PE conjugation; Santa Cruz) for 20 minutes in the dark. Cells were washed to remove unbound antibody prior to FACS analysis. 0.2 μg HbF and 2 μg of HbA CB-hemoglobin) antibodies were used per 5 million cells. Control cells exposed to a nontargeting sgRNA sample and BCL11A exon 2 were used as negative and positive controls respectively to establish flow cytometry conditions. Populations of cells with the top and bottom 10% of expression of HbF were sorted by FACS.
After sorting the HbF-high and HbF-low pools, library preparation and deep sequencing was performed as previously described (37). Briefly, genomic DNA was extracted using the Qiagen Blood and Tissue kit. […]

**Q.** Which results are given for “BCL_01495_H_D55 (guide AGGGAGAAATGAGACAAAAGNGGRC; listed as DNA, chemistry not given here)”?
**A.** Enrichment Score: 0.2643; Dropout Score: −0.4932

**Q.** Which “Enrichment Score” value does the source give for “BCL_01497_H_D55 (guide AAGAGGCCACTGAGTCCTTTNGGRC; listed as DNA, chemistry not given here)” here?
**A.** 0.43

**Q.** And the “Dropout Score” value?
**A.** 0.4562

**Q.** How did the “Enrichment Score” value turn out when “BCL_01617_H_D58 (guide CTAACAGTTGCTTTTATCACNGGRC; listed as DNA, chemistry not given here)” was run?
**A.** 2.495

**Q.** And the “Dropout Score” value?
**A.** −0.7193

**Q.** What does the source list for “BCL_01618_H_D58 (guide TTGCTTTTATCACAGGCTCCNGGRC; listed as DNA, chemistry not given here)”?
**A.** Enrichment Score: 0.8561; Dropout Score: −0.8127

**Q.** For “BCL_01619_H_D58 (guide TTTTATCACAGGCTCCAGGANGGRC; listed as DNA, chemistry not given here)”, which “Enrichment Score” value is on record?
**A.** 1.662

**Q.** And the “Dropout Score” value?
**A.** −0.3147

**Q.** Which “Enrichment Score” value does the source give for “BCL_01620_H_D58 (guide TTTATCACAGGCTCCAGGAANGGRC; listed as DNA, chemistry not given here)” here?
**A.** 1.38

**Q.** What about the “Dropout Score” value of the same substance?
**A.** −0.9481

**Q.** What does the source list for “BCL_01621_H_D58 (guide CACAGGCTCCAGGAAGGGTTNGGRC; listed as DNA, chemistry not given here)”?
**A.** Enrichment Score: 2.319; Dropout Score: −0.6005

**Q.** With “BCL_01622_H_D58 (guide GAAGGGTTTGGCCTCTGATTNGGRC; listed as DNA, chemistry not given here)” as the substance, how does the “Enrichment Score” value read?
**A.** 1.378

**Q.** What about the “Dropout Score” value of the same substance?
**A.** −0.6695

**Q.** Which “Enrichment Score” value does the source give for “BCL_01623_H_D58 (guide AAGGGTTTGGCCTCTGATTANGGRC; listed as DNA, chemistry not given here)” here?
**A.** 1.285

**Q.** What about the “Dropout Score” value of the same substance?
**A.** −0.2669

**Q.** What does the source list for “BCL_01624_H_D58 (guide GGTTTGGCCTCTGATTAGGGNGGRC; listed as DNA, chemistry not given here)”?
**A.** Enrichment Score: 1.472; Dropout Score: −0.7713

**Q.** Which “Enrichment Score” value does the source give for “BCL_01625_H_D58 (guide GTTTGGCCTCTGATTAGGGTNGGRC; listed as DNA, chemistry not given here)” here?
**A.** 0.3718

**Q.** What about the “Dropout Score” value of the same substance?
**A.** −0.9451

**Q.** For “BCL_01626_H_D55 (guide TTTGGCCTCTGATTAGGGTGNGGRC; listed as DNA, chemistry not given here)”, which “Enrichment Score” value is on record?
**A.** 1.336

**Q.** What about the “Dropout Score” value of the same substance?
**A.** −0.2724

**Q.** With “BCL_01627_H_D58 (guide TTGGCCTCTGATTAGGGTGGNGGRC; listed as DNA, chemistry not given here)” as the substance, how does the “Enrichment Score” value read?
**A.** 0.3054

**Q.** What about the “Dropout Score” value of the same substance?
**A.** −0.2564

**Q.** “BCL_01629_H_D58 (guide TCTGATTAGGGTGGGGGCGTNGGRC; listed as DNA, chemistry not given here)” was tested. Which “Enrichment Score” value did it give?
**A.** 1.104

**Q.** And the “Dropout Score” value?
**A.** 0.1807

**Q.** How did the “Enrichment Score” value turn out when “BCL_01631_H_D58 (guide ATTAGGGTGGGGGCGTGGGTNGGRC; listed as DNA, chemistry not given here)” was run?
**A.** 0.4098

**Q.** What about the “Dropout Score” value of the same substance?
**A.** −0.1615

**Q.** “BCL_01634_H_D58 (guide TGGGTGGGGTAGAAGAGGACNGGRC; listed as DNA, chemistry not given here)” was tested. Which “Enrichment Score” value did it give?
**A.** 0.4147

**Q.** And the “Dropout Score” value?
**A.** −1.078

**Q.** For “BCL_01637_H_D58 (guide CCATCGGTGGCCGTTTGCCCNGGRC; listed as DNA, chemistry not given here)”, which “Enrichment Score” value is on record?
**A.** 0.669

**Q.** And the “Dropout Score” value?
**A.** −0.5016

**Q.** What does the source list for “BCL_01638_H_D58 (guide CATCGGTGGCCGTTTGCCCANGGRC; listed as DNA, chemistry not given here)”?
**A.** Enrichment Score: 0.635; Dropout Score: −0.5928

**Q.** How did the “Enrichment Score” value turn out when “BCL_01639_H_D58 (guide ATCGGTGGCCGTTTGCCCAGNGGRC; listed as DNA, chemistry not given here)” was run?
**A.** 0.8219

**Q.** And the “Dropout Score” value?
**A.** −0.8981

**Q.** Which results are given for “BCL_01640_H_D58 (guide TCGGTGGCCGTTTGCCCAGGNGGRC; listed as DNA, chemistry not given here)”?
**A.** Enrichment Score: 0.3658; Dropout Score: −1.013

**Q.** “BCL_01641_H_D55 (guide CGGTGGCCGTTTGCCCAGGGNGGRC; listed as DNA, chemistry not given here)” was tested. Which “Enrichment Score” value did it give?
**A.** 0.282

**Q.** What about the “Dropout Score” value of the same substance?
**A.** −0.4633

**Q.** Which “Enrichment Score” value does the source give for “BCL_01665_H_D58 (guide TGTAACTAATAAATACCAGGNGGRC; listed as DNA, chemistry not given here)” here?
**A.** 0.4418

**Q.** What about the “Dropout Score” value of the same substance?
**A.** −0.6516

**Q.** “BCL_01669_H_D58 (guide CCAGCTGAAGAAAGAACATTNGGRC; listed as DNA, chemistry not given here)” was tested. Which “Enrichment Score” value did it give?
**A.** 0.3196

**Q.** What about the “Dropout Score” value of the same substance?
**A.** −0.00075

**Q.** For “BCL_01684_H_D58 (guide ACAACCTCCTTGTTTACAGANGGRC; listed as DNA, chemistry not given here)”, which “Enrichment Score” value is on record?
**A.** 0.4945

**Q.** What about the “Dropout Score” value of the same substance?
**A.** 0.3674

**Q.** For “BCL_01788_H_D62 (guide GAGATTTACTCTTGTTGCCCNGGRC; listed as DNA, chemistry not given here)”, which “Enrichment Score” value is on record?
**A.** 1.29

**Q.** And the “Dropout Score” value?
**A.** −5.463

**Q.** “BCL_01790_H_D62 (guide TTGCCCGGGCTGGAATGCAANGGRC; listed as DNA, chemistry not given here)” was tested. Which “Enrichment Score” value did it give?
**A.** 0.4673

**Q.** And the “Dropout Score” value?
**A.** −8.123

**Q.** Which results are given for “BCL_01794_H_D62 (guide CAGGCATGTATTACCATGCCNGGRC; listed as DNA, chemistry not given here)”?
**A.** Enrichment Score: 0.2801; Dropout Score: −1.011

**Q.** What does the source list for “BCL_01799_H_D62 (guide CTCAGGTGATCCTCCTGCCCNGGRC; listed as DNA, chemistry not given here)”?
**A.** Enrichment Score: 0.9108; Dropout Score: −9.478

**Q.** Which results are given for “BCL_01800_H_D62 (guide GCCCCGGCCTCCCAAAGTGCNGGRC; listed as DNA, chemistry not given here)”?
**A.** Enrichment Score: 0.6113; Dropout Score: −7.65

**Q.** “BCL_01801_H_D62 (guide CCCCGGCCTCCCAAAGTGCTNGGRC; listed as DNA, chemistry not given here)” was tested. Which “Enrichment Score” value did it give?
**A.** 0.6113

**Q.** And the “Dropout Score” value?
**A.** −8.0566

**Q.** Which “Enrichment Score” value does the source give for “BCL_01825_H_D62 (guide ATTTGCTCTTCTCCAGGGTGNGGRC; listed as DNA, chemistry not given here)” here?
**A.** 0.2818

**Q.** And the “Dropout Score” value?
**A.** −0.3945

**Q.** Which “Enrichment Score” value does the source give for “BCL_01826_H_D62 (guide TTTGCTCTTCTCCAGGGTGTNGGRC; listed as DNA, chemistry not given here)” here?
**A.** 0.4003

**Q.** What about the “Dropout Score” value of the same substance?
**A.** −0.3386

**Q.** For “BCL_01828_H_D62 (guide CTCTTCTCCAGGGTGTGGGGNGGRC; listed as DNA, chemistry not given here)”, which “Enrichment Score” value is on record?
**A.** 0.3485

**Q.** What about the “Dropout Score” value of the same substance?
**A.** −0.391

**Q.** “BCL_01829_H_D62 (guide TGTGGGGTGGCTGTTTAAAGNGGRC; listed as DNA, chemistry not given here)” was tested. Which “Enrichment Score” value did it give?
**A.** 0.496

**Q.** And the “Dropout Score” value?
**A.** −0.1469

**Q.** For “BCL_01831_H_D62 (guide GGGTGGCTGTTTAAAGAGGGNGGRC; listed as DNA, chemistry not given here)”, which “Enrichment Score” value is on record?
**A.** 0.4104

**Q.** What about the “Dropout Score” value of the same substance?
**A.** −0.1486

**Q.** With “BCL_01833_H_D62 (guide AGTTCAAGTAGATATCAGAANGGRC; listed as DNA, chemistry not given here)” as the substance, how does the “Enrichment Score” value read?
**A.** 0.6116

**Q.** And the “Dropout Score” value?
**A.** 0.2289

Source: US12497610B2, “Functional genomics using CRISPR-CAS systems for saturating mutagenesis of non-coding elements, compositions, methods, libraries and applications thereof” (THE BROAD INSTITUTE, INC., priority 2015, dated 2025)
